Laboratory results published in publication PMC10535268, “Design, Synthesis, and Evaluation of Novel Indole Hybrid Chalcones and Their Antiproliferative and Antioxidant Activity” (Molecules, 2023).
Where “and” joins values, the source holds several entries; their conditions need not be identical. Equal values may be shown once.

Assays:
Hela = test: MTT antiproliferative assay, HeLa; assay type: cell-based, human; conditions: 72 h incubation, mean ± SD of three independent experiments
Description: Table 2 IC50 (μM) ± SD of tested compounds in different cell lines after 72 h incubation. | column: Cell Line, IC50 (µM) ± SD / Hela

[1] = Ferric reducing antioxidant power (FRAP); conditions: sample 1 mM, 30 min, gallic acid equivalents, mean (±SD), triplicate
Source text: (§1) Table 3 Antioxidant activity.

[2] = ABTS radical scavenging activity; conditions: sample 1 mM, 30 min, gallic acid equivalents, mean (±SD), triplicate
Source text: as §1

MCF-10A = test: MTT cytotoxicity assay, non-cancer MCF-10A; assay type: cell-based, human; conditions: 72 h incubation, mean ± SD of three independent experiments
MCF-7 = test: MTT antiproliferative assay, MCF-7; assay type: cell-based, human; conditions: MCF-7, 72 h incubation, mean ± SD of three independent experiments
MDA-MB-231 = test: MTT antiproliferative assay, MDA-MB-231; assay type: cell-based, human; conditions: MDA-MB-231, 72 h incubation, mean ± SD of three independent experiments
Jurkat = test: MTT antiproliferative assay, Jurkat; assay type: cell-based, human; conditions: 72 h incubation, mean ± SD of three independent experiments
[3] = DPPH radical scavenging activity; conditions: sample 1 mM, 30 min, gallic acid equivalents, mean (±SD), triplicate
HCT116 = test: MTT antiproliferative assay, HCT116; assay type: cell-based, human; conditions: HCT116, 72 h incubation, mean ± SD of three independent experiments
Bj-5ta = test: MTT cytotoxicity assay, non-cancer Bj-5ta; assay type: cell-based, human; conditions: Homo sapiens, 72 h incubation, mean ± SD of three independent experiments

Structure (SMILES): O=C(/C=C/c1c[nH]c2ccccc12)c1ccccc1F [11a, (2E)-1-(2″-Fluorophenyl)-3-(1′H-indol-3′-yl)prop-2-en-1-one]
- IC50 (Hela): 41.7 ± 0.2 µM
- FRAP [1]: 62.2 (±9.9) µmol GAE/mmol
- ABTS [2]: 150.6 (±4.7) µmol GAE/mmol
- IC50 (MCF-10A): 89.1 ± 2.4 µM
- IC50 (MCF-7): 37.1 ± 0.4 µM
- IC50 (MDA-MB-231): 51.4 ± 3.2 µM
- IC50 (Jurkat): < 8.3 µM and 7.6 µM
- DPPH [3]: 20.5 (±4.0) µmol GAE/mmol
- IC50 (HCT116): 31.8 ± 2.1 µM

Structure (SMILES): Cn1cc(/C=C/C(=O)c2ccccc2F)c2ccccc21 [11b, (2E)-1-(2″-Fluorophenyl)-3-(1′-metyl-1′H-indol-3′-yl)prop-2-en-1-one]
- IC50 (Hela): 57.9 ± 0.4 µM
- FRAP [1]: 47.2 (±1.0) µmol GAE/mmol
- ABTS [2]: 5.7 (±2.7) µmol GAE/mmol
- IC50 (MCF-10A): > 100 µM
- IC50 (MCF-7): 47.5 ± 4.3 µM
- IC50 (MDA-MB-231): > 100 µM
- IC50 (Jurkat): 32.4 ± 1.2 µM
- DPPH [3]: 18.9 (±2.3) µmol GAE/mmol
- IC50 (HCT116): 41.5 ± 1.7 µM

Structure (SMILES): COn1cc(/C=C/C(=O)c2ccccc2F)c2ccccc21 [11c, (2E)-1-(2″-Fluorophenyl)-3-(1′-methoxy-1′H-indol-3′-yl)prop-2-en-1-one]
- IC50 (Hela): 19.2 ± 5.7 µM
- FRAP [1]: 27.4 (±0.9) µmol GAE/mmol
- ABTS [2]: 41.4 (±6.7) µmol GAE/mmol
- IC50 (MCF-10A): 67 ± 2.9 µM
- IC50 (MCF-7): 20 ± 7.9 µM
- IC50 (MDA-MB-231): 21.1 ± 3.9 µM
- IC50 (Jurkat): < 8.3 µM and 5.9 µM
- DPPH [3]: 23.2 (±11.9) µmol GAE/mmol
- IC50 (HCT116): 37.9 ± 2.7 µM

Structure (SMILES): COc1[nH]c2ccccc2c1/C=C/C(=O)c1ccccc1F [11d, (2E)-1-(2″-Fluorophenyl)-3-(2′-methoxy-1′H-indol-3′-yl)prop-2-en-1-one]
- IC50 (Hela): > 100 µM
- IC50 (MCF-10A): 98 ± 1.3 µM
- IC50 (MCF-7): 32 ± 1.2 µM
- IC50 (MDA-MB-231): 95.5 ± 2.7 µM
- IC50 (Jurkat): 11.4 ± 1.9 µM
- IC50 (HCT116): 45.5 ± 2.4 µM

Structure (SMILES): CCOc1[nH]c2ccccc2c1/C=C/C(=O)c1ccccc1F [11e, (2E)-3-(2′-ethoxy-1′H-indol-3′-yl)-1-(2″-fluorophenyl)prop-2-en-1-one]
- IC50 (Hela): 75.2 ± 4.1 µM
- IC50 (MCF-10A): 94 ± 4.6 µM
- IC50 (MCF-7): 30.3 ± 2.2 µM
- IC50 (MDA-MB-231): 72.2 ± 5.4 µM
- IC50 (Jurkat): < 8.3 µM and 8.3 µM
- IC50 (HCT116): 40.1 ± 0.6 µM

Structure (SMILES): CC(C)Oc1[nH]c2ccccc2c1/C=C/C(=O)c1ccc(F)cc1 [11g, (2E)-1-(4″-Fluorophenyl)-3-(2′-isopropoxy-1′H-indol-3′-yl)prop-2-en-1-one]
- IC50 (Hela): 34.2 ± 0.1 µM
- IC50 (MCF-10A): 41.8 ± 1.5 µM
- IC50 (MCF-7): 17.1 ± 2.3 µM
- IC50 (MDA-MB-231): 33.3 ± 0.3 µM
- IC50 (Jurkat): 36.7 ± 4.9 µM
- IC50 (HCT116): 31.7 ± 1.7 µM

Structure (SMILES): CCCCOc1[nH]c2ccccc2c1/C=C/C(=O)c1ccccc1F [11h, (2E)-3-(2′-butoxy-1′H-indol-3′-yl)-1-(2″-fluorophenyl)prop-2-en-1-one]
- IC50 (Hela): 48.2 ± 1 µM
- IC50 (MCF-10A): 65.5 ± 3.7 µM
- IC50 (MCF-7): 13.8 ± 3.5 µM
- IC50 (MDA-MB-231): 36.3 ± 2.1 µM
- IC50 (Jurkat): 35.9 ± 1.8 µM
- IC50 (HCT116): 31 ± 2.9 µM

Structure (SMILES): CC(C)COc1[nH]c2ccccc2c1/C=C/C(=O)c1ccc(F)cc1 [11i, (2E)-3-(2′-isobutoxy-1′H-indol-3′-yl)-1-(4″-fluorophenyl)prop-2-en-1-one]
- IC50 (Hela): 54.6 ± 3.6 µM
- IC50 (MCF-10A): 93.3 ± 3.4 µM
- IC50 (MCF-7): 30.7 ± 0.6 µM
- IC50 (MDA-MB-231): 42.9 ± 0.4 µM
- IC50 (Jurkat): 40.1 ± 3.2 µM
- IC50 (HCT116): 33.8 ± 0.1 µM

Structure (SMILES): COCC(C)Oc1[nH]c2ccccc2c1/C=C/C(=O)c1ccccc1F (stereo not drawn) [11j, (2E)-1-(2-fluorophenyl)-3-{2-[(1-methoxypropan-2-yl)oxy]-1H-indol-3-yl}prop-2-en-1-one]
- IC50 (Hela; Homo sapiens, HeLa, 72 h): 50 ± 1.8 µM
- IC50 (MCF-10A; Homo sapiens, MCF-10A, 72 h): 76.5 ± 1.1 µM
- IC50 (MCF-7; Homo sapiens, MCF7, 72 h): 26.2 ± 0.5 µM
- IC50 (MDA-MB-231; Homo sapiens): 51.2 ± 4.1 µM
- IC50 (Jurkat; Homo sapiens): 40.4 ± 2.1 µM
- IC50 (HCT116; Homo sapiens, HCT-116, 72 h): 32.4 ± 1.3 µM

Structure (SMILES): O=C(/C=C/c1c(OCCO)[nH]c2ccccc12)c1ccccc1F [11k, (2E)-1-(2-fluorophenyl)-3-[2-(2-hydroxyethoxy)-1H-indol-3-yl]prop-2-en-1-one]
- melting point: 140 to 143 °C
- IC50 (Hela; Homo sapiens, HeLa, 72 h): 52.9 ± 1.6 µM
- IC50 (MCF-10A; Homo sapiens, MCF-10A, 72 h): 94.7 ± 2.6 µM
- IC50 (MCF-7; Homo sapiens, MCF7, 72 h): 38.1 ± 3.3 µM
- IC50 (MDA-MB-231; Homo sapiens): 64.5 ± 4.7 µM
- IC50 (Jurkat; Homo sapiens): 37.8 ± 0.9 µM
- IC50 (HCT116; Homo sapiens, HCT-116, 72 h): 39.4 ± 1.5 µM

Structure (SMILES): Cn1cc(/C=C/C(=O)c2ccc(C(F)(F)F)cc2)c2ccccc21 [12b, (2E)-3-(1-methyl-1H-indol-3-yl)-1-(4-trifluoromethylphenyl) prop-2-en-1-one]
- melting point: 182 to 184 °C
- IC50 (Hela; Homo sapiens, HeLa, 72 h): 32.8 ± 0.4 µM
- IC50 (Bj-5ta): > 100 µM
- IC50 (MCF-10A; Homo sapiens, MCF-10A, 72 h): > 100 µM
- IC50 (MCF-7; Homo sapiens, MCF7, 72 h): 20.5 ± 5.1 µM
- IC50 (MDA-MB-231; Homo sapiens): > 100 µM
- IC50 (Jurkat; Homo sapiens): > 100 µM
- IC50 (HCT116; Homo sapiens, HCT-116, 72 h): 12.3 ± 0.2 µM
